Experiment [1] relates to KK-Ay/Ta Jci type 2 diabetes mice. As to the kind of experiment: In-vivo blood sugar and lipid reduction in diabetes model mice (KKAy mice). The arrangement: species or system mouse. Particulars: 30 mg/kg orally one time per day for 4 days, 5th day vs 1st day. The procedure: Test for in-vivo Evaluation of the Activities for Blood Sugar Reduction and Lipid Reduction Using Diabetes Model Mice (KKAy Mice)
Type 2 diabetes mice “KK-Ay/Ta Jci” (male, Clea Japan, Inc., 10-week old) put in cages were used (each cage contained 5 mice). In the morning of the 1st day of test start, a blood was collected from the orbital vein of each mouse. The blood sugar value in the blood was measured by subjecting the blood to deproteinization using perchloric acid, subjecting the resulting material to centrifugation, and subjecting the resulting supernatant liquid to a new blood sugar test (Boehringer Mannheim). Further, the blood was subjected to centrifugation to obtain a plasma and the triglyceride concentration and free fatty acid concentration in the plasma were measured using Triglyceride E-Test Wako and NEFA-C Test Wako (Wako Pure Chemical Industries, Ltd.), respectively. Grouping was made so that the blood sugar values in individual groups became the same. Then, an Example 2 compound (exemplary compound No. 61) was suspended in a 0.5% aqueous CMC solution and administered orally one time per day for 4 days. In the 5th day of test, blood collection was made to measure blood sugar value, triglyceride concentration and free fatty acid concentration. Incidentally, a group to which only the 0.5% aqueous CMC solution was administered, was used as a control group; and Pioglitazone was used in a positive control group. The reduction in parameter in each group was calculated using the following formula.
Reduction (%)={1−(parameter of 5th day in each group)/(parameter of 1st day in each group)}×100

The next experiment deals with T1, human PPARα receptor (Homo sapiens, UniProt Q07869).
T1 construct: expressed in transfected cells; host or cells: CV-1 cells (pSG5-based expression vector)
T1 sequence (Q07869 167-468): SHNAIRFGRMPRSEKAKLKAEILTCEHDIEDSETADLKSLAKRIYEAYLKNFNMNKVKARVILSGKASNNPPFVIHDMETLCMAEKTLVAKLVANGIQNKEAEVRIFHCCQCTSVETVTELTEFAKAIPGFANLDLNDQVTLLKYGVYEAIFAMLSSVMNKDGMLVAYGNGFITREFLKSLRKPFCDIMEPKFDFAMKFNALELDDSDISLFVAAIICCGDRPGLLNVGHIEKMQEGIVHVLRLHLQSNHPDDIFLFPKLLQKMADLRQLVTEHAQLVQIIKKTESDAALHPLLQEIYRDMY
Briefly: Luciferase reporter assay of PPARα agonist activity (Gal4-PPARα chimera receptor in CV-1 cells). It is filed as cell-based. Particulars: for Emax at 0.1 µM: CV-1, 0.1 μM compound; for Emax at 0.1 µM / Emax at 1 µM / Emax at 10 µM: luciferase activity with 10 μM Wy-14,643 taken as 100, read-out: PPARα agonist activity, relative activity; for Emax at 1 µM: CV-1, 1 μM compound; for Emax at 10 µM: CV-1, 10 μM compound; for PPARα agonist activity, relative activity: luciferase activity with 10 μM Wy-14,643 taken as 100. As to the method: (§1) Measurement of PPARα Agonist Activity and PPARγ Agonist Activity
(§2) 1. Materials for Assay of Luciferase Using Human PPARα and PPARγ Receptors
(§3) The entire procedure was carried out according to the fundamental methods of genetic engineering and the ordinary method in the yeast one-hybrid or two-hybrid system was applied.
(§4) PGL2-UAS5-TK-luc was prepared as a reporter plasmid carrying a response sequence of Gal4 protein as a basic transcription factor of yeast, an enhancer sequence with five repeat part of UAS, a luciferase gene (luc) under the control of timidine kinase (TK) promoter. Specifically, a DNA fragment encoding a TK promoter (−105/+51) on the downstream side of an enhancer sequence comprising two time repeat of UAS was amplified by PCR using pRL-TK carrying a TK promoter (Promega, Trade name: Catalogue No. E2241) as the template and the primers: […]
(§5) After the fragment was cleaved with XhoI-Hind III, pGL2-UAS2-TK-luc was obtained by inserting the resultant fragment into the XhoI-Hind III site located on the upstream side of a luciferase structural gene on pGL2-Basic vector (Promega, Trade name: Catalogue No. E1641).
(§6) After cleavage of a synthetic DNA as an enhancer sequence comprising three time repeat of Gal4 response sequence (SEQ ID NO: 3): 5′-ATTGGTAC([…])×3 AGATCTCGAC) using KpnI and BgIII was carried out, pGL2-UAS5-TK-luc was prepared by inserting the resulting fragment into the KpnI-BgIIIb site of pGL2-UAS2-TK-luc.
(§7) A vector for expression of a chimera receptor protein, in which a ligand binding region of an internuclear receptor human PPARα or PPARγ receptor was fused with the carboxyl terminal of a DNA binding region of yeast Ga14 protein, was prepared as follows:
(§8) The structural gene of pSG5 (STRATAGENE, Trade Name: Catalogue No. 216201) as the basic expression vector was changed for the chimera receptor except that the promoter-enhancer region was maintained as it was.
(§9) The DNA encoding the ligand binding region of the human PPARα or PPARγ receptor was fused on the downstream side of the DNA encoding the DNA binding region and the amino acid sequence from 1 to 147 positions of Ga14 protein so that their reading frames were fitted and the resulting fused DNA was inserted into pSG5 (trade name) on the down stream side of the promoter-enhancer region. In this step, the DNA sequence was arranged so that a signal for transfer into the nucleus (Ala Pro Lys Lys Lys Arg Lys Val Gly (SEQ ID: No: 4) derived from SV-40T antigen was located on the amino terminal of the ligand binding region of PPARα or PPARγ receptor in order to localize the chimera receptor in the nucleus.
(§10) Based on comparison of the human PPAR receptors described in R. Mukherjee et al., [see J. Steroid Biochem. Molec. Biol., Vol. 51, p157 (1994)] and M. E. Green et al., [see Gene Expression, Vol. 4, p281 (1995))], as the structural gene part used for the ligand binding region PPARα or PPARγ, the human PPARα ligand binding region: Ser167-Tyr468; and the PPARγ ligand binding region: Ser176-Tyr478 were used, which had the same sequences corresponding to Ser204-Tyr506 for human PPARγ1 receptor and human PPARγ2, respectively.
(§11) In order to monitor influence against the basic transcription, an expression vector was prepared which carried a DNA encoding only the DNA binding region and the amino acid sequence from 1 to 147 position of Ga14 protein defective in its PPAR ligand binding region and a signal for transfer into the nucleus of SV-40T-antigen.
(§12) 2. Assay of Luciferase Using Human PPARα or PPARγ Receptor
(§13) CV-1 cells used as a host cell were cultivated according to an ordinary method. Specifically, a fetal bovine serum (Intergent, Catalogue No. 1020-90) was added to a Dulbecco's modified Eagle's medium (DMEM) so that the final concentration became 10%. Further, penicillin G (50 U/ml) and streptomycin sulfate (50 μg/ml) were added. Cultivation was conducted in the resulting medium in a 5% carbon dioxide gas at 37° C. […]
Background: A reporter such as luciferase makes a cellular process visible.

Another experiment has as its target T2, human PPARγ receptor (Homo sapiens, UniProt P37231).
T2 construct: corresponding to Ser204-Tyr506 for human PPARγ1 receptor and human PPARγ2; expressed in transfected cells; host or cells: CV-1 cells (pSG5-based expression vector)
T2 sequence (P37231 204-505 limits assumed): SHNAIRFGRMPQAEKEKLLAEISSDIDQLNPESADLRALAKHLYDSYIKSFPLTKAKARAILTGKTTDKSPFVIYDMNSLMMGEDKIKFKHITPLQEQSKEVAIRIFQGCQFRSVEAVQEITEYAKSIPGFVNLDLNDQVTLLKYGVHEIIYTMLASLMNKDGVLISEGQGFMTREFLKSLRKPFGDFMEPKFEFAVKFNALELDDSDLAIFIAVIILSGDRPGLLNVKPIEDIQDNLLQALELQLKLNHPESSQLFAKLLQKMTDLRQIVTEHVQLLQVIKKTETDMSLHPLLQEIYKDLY
Briefly: Luciferase reporter assay of PPARγ agonist activity (Gal4-PPARγ chimera receptor in CV-1 cells). Particulars: for Emax at 0.1 µM: CV-1, 0.1 μM compound; for Emax at 0.1 µM / Emax at 1 µM / Emax at 10 µM: luciferase activity with 1 μM Pioglitazone taken as 100, read-out: PPAR γ agonist activity, relative activity; for Emax at 1 µM: CV-1, 1 μM compound; for Emax at 10 µM: CV-1, 10 μM compound; for PPAR γ agonist activity, relative activity: luciferase activity with 1 μM Pioglitazone taken as 100. It is filed as cell-based. The procedure:
as §1, §2, §3, §4, §5, §6, §7, §8, §9, §10, §11, §12, §13

In the case of `CCc1ccc(CCOc2ccc(CC3SC(=O)NC3=O)cc2)nc1` (stereo not drawn) [Pioglitazone, reference compound], in experiment [1], the “Reduction in blood sugar (%)” value is 28%. In experiment [1] (plasma), the “Reduction in free fatty acid (%)” value came to 49% and the “Reduction in triglyceride (%)” value was found to be 60%.

Regarding `CCOC(=O)C(Cc1ccc(OCc2cnc3ccc(OC)cc3c2OC(C)C)cc1)OCC` (stereo not drawn) [Example 1 (101), ethyl 2-ethoxy-3-{[4-(4-isopropoxy-6-methoxyquinoline-3-yl)methyloxy]phenyl}propanoate], on human PPARα receptor, the Emax at 0.1 µM amounted to 0.2%, the Emax at 1 µM stood at 0.9% and the Emax at 10 µM came out at 28.7%. Moreover, on human PPARγ receptor, the Emax at 0.1 µM is 98.6%, the Emax at 1 µM was 127% and the Emax at 10 µM is 102%.

Take `CCOC(Cc1ccc(OCc2ccc3ncccc3c2)cc1)C(=O)O` (stereo not drawn) [Example 10 (32), 2-ethoxy-3-{[4-(quinoline-6-yl)methyloxy]phenyl}propanoic acid]: the “PPARα agonist activity, relative activity” value at human PPARα receptor (0.1 μM compound) is listed as 0.2; at human PPARα receptor (1 μM compound), 0.3; at human PPARα receptor (10 μM compound), 50.1. Moreover, the “PPAR γ agonist activity, relative activity” value on human PPARγ receptor (0.1 μM compound) is 1.0; on human PPARγ receptor (1 μM compound) it was 20.8; on human PPARγ receptor (10 μM compound), 123.9.

On to `COc1ccc2ncc(COc3ccc(/C=C(\Sc4ccccc4)C(=O)O)cc3)c(OC(C)C)c2c1` [Example 18 (112), 3-{[4-(4-isopropoxy-6-methoxyquinoline-3-yl)methyloxy]phenyl}-2-phenylthiopropenoic acid], for which, at human PPARα receptor, the Emax at 0.1 µM came to 0.3%, the Emax at 1 µM is 0.3% and the Emax at 10 µM is 0.3%. Moreover, on human PPARγ receptor, the Emax at 0.1 µM was determined as 0.5%, the Emax at 1 µM worked out at 22.2% and the Emax at 10 µM was 89.9%.

For the compound `CCOC(Cc1ccc(OCc2cnc3c(F)cccc3c2OC(C)C)cc1)C(=O)O` (stereo not drawn) [Example 15 (82), 2-ethoxy-3-{[4-(8-fluoro-4-isopropoxyquinoline-3-yl)methyloxy]phenyl}propanoic acid], on human PPARα receptor, the Emax at 0.1 µM amounted to 0.3%, the Emax at 1 µM came to 0.3% and the Emax at 10 µM worked out at 5%. For the same compound, at human PPARγ receptor, the Emax at 0.1 µM was found to be 52.3%, the Emax at 1 µM is 133% and the Emax at 10 µM was 125%.

`CCOC(Cc1ccc(OCc2cnc3cc(C(F)(F)F)ccc3c2OC(C)C)cc1)C(=O)O` (stereo not drawn) [Example 12 (85), 2-ethoxy-3-{[4-(4-isopropoxy-7-trifluoromethylquinoline-3-yl)methyloxy]phenyl}propanoic acid]: at human PPARα receptor, the Emax at 0.1 µM amounted to 0.2%, the Emax at 1 µM stood at 0.3% and the Emax at 10 µM turned out to be 6.4%. Also, at human PPARγ receptor, the Emax at 0.1 µM turned out to be 1.2%, the Emax at 1 µM was 60.4% and the Emax at 10 µM amounted to 111%.

`CCOC(Cc1ccc(OCc2cnc3c(C(F)(F)F)cccc3c2OC(C)C)cc1)C(=O)O` (stereo not drawn) [Example 14 (86), 2-ethoxy-3-{[4-(4-isopropoxy-8-trifluoromethylquinoline-3-yl)methyloxy]phenyl}propanoic acid]: at human PPARα receptor, the Emax at 0.1 µM was 0.3%, the Emax at 1 µM was 0.3% and the Emax at 10 µM was determined as 2.1%. Moreover, on human PPARγ receptor, the Emax at 0.1 µM is 19.6%, the Emax at 1 µM came to 76% and the Emax at 10 µM was 132%.

For `CCOC(Cc1ccc(OCc2cnc3ccc(CC)cc3c2OC(C)C)cc1)C(=O)O` (stereo not drawn) [Example 6 (67), 2-ethoxy-3-{[4-(4-isopropoxy-6-ethylquinoline-3-yl)methyloxy]phenyl}propanoic acid], at human PPARα receptor, the Emax at 0.1 µM turned out to be 5.7%, the Emax at 1 µM worked out at 47.1% and the Emax at 10 µM turned out to be 74%. Also, at human PPARγ receptor, the Emax at 0.1 µM was 122%, the Emax at 1 µM amounted to 140% and the Emax at 10 µM amounted to 125%.

In the case of `CCOC(Cc1ccc(OCc2cc(OC)c3ccccc3n2)cc1)C(=O)O` (stereo not drawn) [Example 11 (99), 2-ethoxy-3-{[4-(4-methoxyquinoline-2-yl)methyloxy]phenyl}propanoic acid], on human PPARα receptor, the Emax at 0.1 µM is 25.2%, the Emax at 1 µM was 64.3% and the Emax at 10 µM is 68.6%. Further, on human PPARγ receptor, the Emax at 0.1 µM was found to be 75.2%, the Emax at 1 µM is 115% and the Emax at 10 µM is 106%.
